Measured values from patent US10273248B2, “Glucose uptake inhibitors” (Kadmon Corporation LLC, priority 2015, dated 2019).

Each compound was assayed on glycolysis in HT1080 cells (assay: Glycolysis assay: oligomycin plus compound, cellular ATP by Cell Titer Glo). Conditions: Homo sapiens, HT-1080, 1 h, 10 μM oligomycin, one hour, class symbols.
Assay type: cell-based
Method in brief: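 Confluent HT1080 cells treated 1 h with compound plus 10 μM oligomycin to block mitochondrial ATP, so remaining ATP reflects glycolysis. Cellular ATP read by Cell Titer-Glo luminescence; IC50 derived from dose-response curves.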

| IC50 | SMILES |
| --- | --- |
| 10 to 100 nM | O=C(COc1cccc(-c2nc(Nc3ccc(-c4cn[nH]c4)cc3)c3ncccc3n2)c1)NC1CCCC1 [Example 51, 2-(3-(4-((4-(1H-pyrazol-4-yl)phenyl)amino)pyrido[3,2-d]pyrimidin-2-yl)phenoxy)-N-cyclopentylacetamide] |
| > 1000 nM | CC(C)NC(=O)COc1cc(F)cc(-c2nc(Nc3ccc(-c4cn[nH]c4)cc3)c3ccsc3n2)c1 [Example 35] |
| 10 to 100 nM | CCC(C)(C)NC(=O)COc1cccc(-c2nc3c(c(Nc4ccc(-c5cn[nH]c5)cc4)n2)CN(C(C)=O)CC3)c1 [Example 148, 2-(3-(4-((4-(1H-pyrazol-4-yl)phenyl)amino)-6-acetyl-5,6,7,8-tetrahydropyrido[4,3-d]pyrimidin-2-yl)phenoxy)-N-(tert-pentyl)acetamide] |
| 10 to 100 nM | CC(NC(=O)COc1cccc(-c2nc3c(c(Nc4ccc(-c5cn[nH]c5)cc4)n2)COC3)c1)C(F)(F)F (centres unmarked) [Example 90, 2-(3-(4-((4-(1H-pyrazol-4-yl)phenyl)amino)-5,7-dihydrofuro[3,4-d]pyrimidin-2-yl)phenoxy)-N-(1,1,1-trifluoropropan-2-yl)acetamide] |
| 10 to 100 nM | COc1cncc(C(=O)Nc2cccc(-c3nc4c(c(Nc5ccc(-c6cn[nH]c6)cc5)n3)COC4)c2)c1 [Example 80, N-(3-(4-((4-(1H-pyrazol-4-yl)phenyl)amino)-5,7-dihydrofuro[3,4-d]pyrimidin-2-yl)phenyl)-5-methoxynicotinamide] |
| > 1000 nM | CNC(=O)COc1cccc(-c2nc3c(c(Nc4ccc(-c5cn[nH]c5)cc4)n2)COC3)c1 [Example 42, 2-(3-(4-((4-(1H-pyrazol-4-yl)phenyl)amino)-5,7-dihydrofuro[3,4-d]pyrimidin-2-yl)phenoxy)-N-methylacetamide] |
| 10 to 100 nM | CC(C)C(=O)N1CCc2nc(-c3cccc(OCC(=O)NCC(C)(C)C)c3)nc(Nc3ccc(-c4cn[nH]c4)cc3)c2C1 [Example 155, 2-(3-(4-((4-(1H-pyrazol-4-yl)phenyl)amino)-6-isobutyryl-5,6,7,8-tetrahydropyrido[4,3-d]pyrimidin-2-yl)phenoxy)-N-neopentylacetamide] |
| 101 to 250 nM | CCC(C)(C)NC(=O)COc1cccc(-c2nc3c(c(Nc4ccc(-c5cn[nH]c5)cc4)n2)CN(C(C)C)CC3)c1 [Example 131, 2-(3-(4-((4-(1H-pyrazol-4-yl)phenyl)amino)-6-isopropyl-5,6,7,8-tetrahydropyrido[4,3-d]pyrimidin-2-yl)phenoxy)-N-(tert-pentyl)acetamide] |
| > 1000 nM | CCC(CC)NC(=O)COc1cc(-c2nc3c(c(Nc4ccc(-c5cn[nH]c5)cc4)n2)COC3)ccc1F [Example 97, 2-(5-(4-((4-(1H-pyrazol-4-yl)phenyl)amino)-5,7-dihydrofuro[3,4-d]pyrimidin-2-yl)-2-fluorophenoxy)-N-(pentan-3-yl)acetamide] |
| 251 to 500 nM | O=C(COc1cccc(-c2nc(Nc3ccc(-c4cn[nH]c4)cc3)c3sccc3n2)c1)NC1CC(F)(F)C1 [Example 179, 2-(3-(4-((4-(1H-pyrazol-4-yl)phenyl)amino)thieno[3,2-d]pyrimidin-2-yl)phenoxy)-N-(3,3-difluorocyclobutyl)acetamide] |
| 501 to 1000 nM | O=C(Nc1cccc(-c2nc3c(c(Nc4ccc(-c5cn[nH]c5)cc4)n2)COC3)c1)c1ccncc1 [Example 175, N-(3-(4-((4-(1H-pyrazol-4-yl)phenyl)amino)-5,7-dihydrofuro[3,4-d]pyrimidin-2-yl)phenyl)isonicotinamide] |
| 10 to 100 nM | O=C(COc1cccc(-c2nc(Nc3ccc(-c4cn[nH]c4)cc3)c3ccncc3n2)c1)NC1CCCC1 [Example 64, 2-(3-(4-((4-(1H-pyrazol-4-yl)phenyl)amino)pyrido[3,4-d]pyrimidin-2-yl)phenoxy)-N-cyclopentylacetamide] |
| 501 to 1000 nM | CN1CCN(CC(=O)Nc2cccc(-c3nc(Nc4ccc(-c5cn[nH]c5)cc4)c4sccc4n3)c2)CC1 [Example 183, N-(3-(4-((4-(1H-pyrazol-4-yl)phenyl)amino)thieno[3,2-d]pyrimidin-2-yl)phenyl)-2-(4-methylpiperazin-1-yl)acetamide] |
| 10 to 100 nM | CC(C)NC(=O)COc1cccc(-c2nc(Nc3ccc(-c4cn[nH]c4)cc3)c3cnccc3n2)c1 [Example 134, 2-(3-(4-((4-(1H-pyrazol-4-yl)phenyl)amino)pyrido[4,3-d]pyrimidin-2-yl)phenoxy)-N-isopropylacetamide] |
| 501 to 1000 nM | CCC(CC)NC(=O)COc1cccc(-c2nc3c(c(Nc4ccc(-c5cn[nH]c5)cc4)n2)CN(C(C)C)CC3)c1 [Example 119, 2-(3-(4-((4-(1H-pyrazol-4-yl)phenyl)amino)-6-isopropyl-5,6,7,8-tetrahydropyrido[4,3-d]pyrimidin-2-yl)phenoxy)-N-(pentan-3-yl)acetamide] |
| > 1000 nM | CC(C)(C)NC(=O)COc1cc(-c2nc3c(c(Nc4ccc(-c5cn[nH]c5)cc4)n2)COC3)ccc1F [Example 96, 2-(5-(4-((4-(1H-pyrazol-4-yl)phenyl)amino)-5,7-dihydrofuro[3,4-d]pyrimidin-2-yl)-2-fluorophenoxy)-N-(tert-butyl)acetamide] |
| 101 to 250 nM | O=C(COc1cccc(-c2nc3c(c(Nc4ccc(-c5cn[nH]c5)cc4)n2)COC3)c1)NC1CC(F)(F)C1 [Example 82, 2-(3-(4-((4-(1H-pyrazol-4-yl)phenyl)amino)-5,7-dihydrofuro[3,4-d]pyrimidin-2-yl)phenoxy)-N-(3,3-difluorocyclobutyl)acetamide] |
| > 1000 nM | O=C(CN1CCOCC1)Nc1cccc(-c2nc3c(c(Nc4ccc(-c5cn[nH]c5)cc4)n2)COC3)c1 [Example 2, N-(3-(4-((4-(1H-pyrazol-4-yl)phenyl)amino)-5,7-dihydrofuro[3,4-d]pyrimidin-2-yl)phenyl)-2-morpholinoacetamide] |
| 501 to 1000 nM | CCCNC(=O)COc1cccc(-c2nc(Nc3ccc(-c4cn[nH]c4)cc3)c3ccsc3n2)c1 [Example 46, 2-(3-(4-((4-(1H-pyrazol-4-yl)phenyl)amino)thieno[2,3-d]pyrimidin-2-yl)phenoxy)-N-propylacetamide] |
| 10 to 100 nM | CC(C)(C)CNC(=O)COc1cccc(-c2nc3c(c(Nc4ccc(-c5cn[nH]c5)cc4)n2)COCC3)c1 [Example 105, 2-(3-(4-((4-(1H-pyrazol-4-yl)phenyl)amino)-7,8-dihydro-5H-pyrano[4,3-d]pyrimidin-2-yl)phenoxy)-N-neopentylacetamide] |
| 501 to 1000 nM | O=C(Nc1cccc(-c2nc(Nc3ccc(-c4cn[nH]c4)cc3)c3sccc3n2)c1)c1ccncc1 [Example 174, N-(3-(4-((4-(1H-pyrazol-4-yl)phenyl)amino)thieno[3,2-d]pyrimidin-2-yl)phenyl)isonicotinamide] |
| > 1000 nM | Cn1cnc2c(Nc3ccc(-c4cn[nH]c4)cc3)nc(-c3cccc(NC(=O)CN4CCOCC4)c3)nc21 [Example 6, N-(3-(6-((4-(1H-pyrazol-4-yl)phenyl)amino)-9-methyl-9H-purin-2-yl)phenyl)-2-morpholinoacetamide] |
| 10 to 100 nM | O=C(COc1cccc(-c2nc3c(c(Nc4ccc(-c5cn[nH]c5)cc4)n2)COCC3)c1)NC1CCCC1 [Example 108, 2-(3-(4-((4-(1H-pyrazol-4-yl)phenyl)amino)-7,8-dihydro-5H-pyrano[4,3-d]pyrimidin-2-yl)phenoxy)-N-cyclopentylacetamide] |
